± gives the standard deviation of the averaged measurements.

Common to all, as to assay: level (log10 ratio to DMSO vehicle control); higher = higher biomarker level / cell amount than vehicle control
Holding throughout (details): in DMSO

Compound in assay [1]: O=S(=O)(O)CCC(F)(F)C(F)(F)C(F)(F)C(F)(F)C(F)(F)C(F)(F)F [6:2 Fluorotelomer sulfonic acid]
How it is done:
(§1)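 BioMAP Diversity Plus panel of 12 human primary cell co-culture systems (3C, 4H, LPS, SAg, BT, BF4T, BE3C, CASM3C, HDF3CGF, KF3CT, MyoF, Mphg). Compounds were added 1 h before stimulation and left for 24 h (MyoF 48 h; BT 72 h for soluble read-outs or 6 d for IgG). Biomarkers were read by ELISA, cytotoxicity by SRB, PBMC viability and proliferation by Alamar Blue. Each well value was divided by the mean of 8 DMSO control wells on the same plate and log10 transformed; duplicate blinded samples were tested at 4 concentrations.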

Compound in assay [2]: COC(=O)C(F)(F)C(F)(F)OC(F)(C(F)(F)F)C(F)(F)OC(F)=C(F)F [Methyl perfluoro(3-(1-ethenyloxypropan-2-yloxy)propanoate)]
How it is done:
as §1

Compound in the next assay: NC(=O)C(F)(F)C(F)(F)C(F)(F)C(F)(F)C(N)=O [Octafluoroadipamide]
How it is done:
as §1

Compound in assay [3]: O=S(=O)(F)C(F)(F)C(F)(F)C(F)(F)C(F)(F)C(F)(F)C(F)(F)C(F)(F)C(F)(F)F [Perfluorooctanesulfonyl fluoride]
How it is done: as §1

Compound in assay [4]: FC(F)(F)C(F)(F)C(F)(F)C(F)(F)C(F)(F)C(F)(F)CC1CO1 [3-(Perfluorohexyl)-1,2-epoxypropane]
How it is done:
as §1

In the case of BE3C:CXCL10/IP-10, the “level (log10)” value was 0.0015 ± 0.0021 in assay [1] (6700 nM); -0.0095 ± 0.0078 in assay [1] (20000 nM); -0.0125 ± 0.018 in assay [1] (60000 nM); -0.02 ± 0.013 in assay [2] (6700 nM); -0.054 ± 0.013 in assay [2] (20000 nM); -0.0275 ± 0.047 with Octafluoroadipamide (6700 nM). For the same test system, the “level (log10)” value in the assay with Octafluoroadipamide (20000 nM) was -0.031 ± 0.03; with Octafluoroadipamide (60000 nM), -0.0185 ± 0.056; in assay [3] (6700 nM), 0.0095 ± 0.035; in assay [3] (20000 nM) it was 0.0115 ± 0.025; in assay [3] (60000 nM), 0.008 ± 0.03; in assay [4] (6700 nM), 0.001 ± 0.0057. Besides, the “level (log10)” value was 0.001 ± 0.017 in assay [4] (20000 nM) and 0.018 ± 0.0014 in assay [4] (60000 nM).

Take BF4T:CCL26/Eotaxin-3: the “level (log10)” value is 0.001 ± 0.018 in assay [1] (6700 nM); -0.0535 ± 0.011 in assay [1] (20000 nM); -0.08 ± 0.078 in assay [1] (60000 nM); -0.007 in assay [2] (6700 nM); -0.069 ± 0.014 in assay [2] (20000 nM); -0.0045 ± 0.046 in the assay with Octafluoroadipamide (6700 nM). Besides, the “level (log10)” value with Octafluoroadipamide (20000 nM) is 0.0065 ± 0.052; in the assay with Octafluoroadipamide (60000 nM), 0.0075 ± 0.029; in assay [3] (6700 nM) it was -0.0265 ± 0.021; in assay [3] (20000 nM) it was 0.0035 ± 0.016; in assay [3] (60000 nM), -0.014 ± 0.016; in assay [4] (6700 nM) it was -0.0225 ± 0.076. Also, the results for the “level (log10)” value in assay [4] (20000 nM) and in assay [4] (60000 nM) were -0.016 ± 0.065 and 0.001 ± 0.0042, respectively.

For BF4T:CD106/VCAM-1, the “level (log10)” value in assay [1] (6700 nM) was -0.0125 ± 0.04; in assay [1] (20000 nM), -0.0315 ± 0.0035; in assay [1] (60000 nM), -0.022 ± 0.057; in assay [2] (6700 nM) it was -0.007 ± 0.071; in assay [2] (20000 nM), -0.091 ± 0.025; in the assay with Octafluoroadipamide (6700 nM), -0.0265 ± 0.021. Moreover, the “level (log10)” value with Octafluoroadipamide (20000 nM) was -0.0215 ± 0.016; with Octafluoroadipamide (60000 nM), 0.0155 ± 0.061; in assay [3] (6700 nM), -0.007; in assay [3] (20000 nM), -0.0355 ± 0.0021; in assay [3] (60000 nM), -0.044 ± 0.031; in assay [4] (6700 nM), 0.0195 ± 0.0021. Besides, the “level (log10)” value in assay [4] (20000 nM) was 0.017 ± 0.0028; in assay [4] (60000 nM), 0.0275 ± 0.028.

With SAg:CXCL9/MIG, the “level (log10)” value in assay [1] (6700 nM) is -0.002 ± 0.018; in assay [1] (20000 nM) it was -0.0035 ± 0.015; in assay [1] (60000 nM) it was -0.0045 ± 0.012; in assay [2] (6700 nM), -0.0145 ± 0.021; in assay [2] (20000 nM), 0.0055 ± 0.0035; in the assay with Octafluoroadipamide (6700 nM), 0. For the same test system, the “level (log10)” value with Octafluoroadipamide (20000 nM) is -0.0045 ± 0.0064; with Octafluoroadipamide (60000 nM), -0.0005 ± 0.013; in assay [3] (6700 nM), -0.005 ± 0.0014; in assay [3] (20000 nM) it was -0.0015 ± 0.0078; in assay [3] (60000 nM), 0.002 ± 0.018; in assay [4] (6700 nM), 0.008 ± 0.0085. In addition, the entries for the “level (log10)” value in assay [4] (20000 nM) and in assay [4] (60000 nM) were 0.006 ± 0.0057 and 0.002 ± 0.0042, respectively.

With SAg:CXCL8/IL-8, the “level (log10)” value in assay [1] (6700 nM) is -0.012 ± 0.025; in assay [1] (20000 nM), 0.0325 ± 0.039; in assay [1] (60000 nM), 0.064 ± 0.03; in assay [2] (6700 nM) it was -0.0155 ± 0.026; in assay [2] (20000 nM) it was 0.055 ± 0.15; with Octafluoroadipamide (6700 nM) it was -0.001 ± 0.04. For the same test system, the “level (log10)” value is 0.0075 ± 0.015 with Octafluoroadipamide (20000 nM); 0.02 ± 0.0014 with Octafluoroadipamide (60000 nM); 0.039 ± 0.1 in assay [3] (6700 nM); -0.012 ± 0.025 in assay [3] (20000 nM); 0.012 ± 0.058 in assay [3] (60000 nM); -0.0135 ± 0.021 in assay [4] (6700 nM). Moreover, the “level (log10)” value is -0.029 ± 0.013 in assay [4] (20000 nM) and 0.0075 ± 0.026 in assay [4] (60000 nM).

For BF4T:PAI-I, the “level (log10)” value in assay [1] (6700 nM) was 0.0075 ± 0.005; in assay [1] (20000 nM) it was -0.0235 ± 0.012; in assay [1] (60000 nM) it was -0.0265 ± 0.0078; in assay [2] (6700 nM), -0.016 ± 0.0085; in assay [2] (20000 nM) it was -0.0175 ± 0.021; with Octafluoroadipamide (6700 nM), -0.0005 ± 0.0035. Moreover, the “level (log10)” value in the assay with Octafluoroadipamide (20000 nM) was -0.0035 ± 0.00071; in the assay with Octafluoroadipamide (60000 nM) it was 0.015 ± 0.023; in assay [3] (6700 nM), 0.004 ± 0.0014; in assay [3] (20000 nM), -0.0005 ± 0.0035; in assay [3] (60000 nM), 0.02 ± 0.0085; in assay [4] (6700 nM), 0.003 ± 0.0085. For the same test system, the “level (log10)” value amounted to 0.007 in assay [4] (20000 nM) and 0.007 ± 0.018 in assay [4] (60000 nM).

Turning to LPS:CD142/Tissue Factor, the “level (log10)” value in assay [1] (6700 nM) was -0.0015 ± 0.064; in assay [1] (20000 nM) it was 0.02 ± 0.0085; in assay [1] (60000 nM), 0.0275 ± 0.026; in assay [2] (6700 nM), -0.0235 ± 0.00071; in assay [2] (20000 nM), 0.009 ± 0.011; in the assay with Octafluoroadipamide (6700 nM), -0.0225 ± 0.077. For the same test system, the “level (log10)” value is -0.004 ± 0.025 in the assay with Octafluoroadipamide (20000 nM); 0.057 ± 0.025 in the assay with Octafluoroadipamide (60000 nM); -0.0015 ± 0.0064 in assay [3] (6700 nM); 0.018 ± 0.011 in assay [3] (20000 nM); -0.0065 ± 0.019 in assay [3] (60000 nM); -0.023 ± 0.0057 in assay [4] (6700 nM). In addition, the figures for the “level (log10)” value in assay [4] (20000 nM) and in assay [4] (60000 nM) were -0.0095 ± 0.032 and 0.0015 ± 0.039, respectively.

Regarding SAg:CD40, the “level (log10)” value is -0.0275 ± 0.046 in assay [1] (6700 nM); -0.0285 ± 0.064 in assay [1] (20000 nM); -0.053 ± 0.035 in assay [1] (60000 nM); -0.0045 ± 0.021 in assay [2] (6700 nM); -0.0045 ± 0.081 in assay [2] (20000 nM); -0.002 ± 0.0028 with Octafluoroadipamide (6700 nM). For the same test system, the “level (log10)” value was -0.001 ± 0.0014 in the assay with Octafluoroadipamide (20000 nM); -0.001 ± 0.024 with Octafluoroadipamide (60000 nM); 0.002 ± 0.0071 in assay [3] (6700 nM); -0.003 ± 0.0071 in assay [3] (20000 nM); -0.012 ± 0.0014 in assay [3] (60000 nM); -0.008 ± 0.013 in assay [4] (6700 nM). The “level (log10)” value was -0.0135 ± 0.012 in assay [4] (20000 nM) and -0.018 ± 0.013 in assay [4] (60000 nM).

Consider BT:B cell Proliferation, for which the “level (log10)” value was 0.0405 ± 0.066 in assay [1] (6700 nM); 0.031 ± 0.017 in assay [1] (20000 nM); 0.0625 ± 0.098 in assay [1] (60000 nM); -0.009 ± 0.0099 in assay [2] (6700 nM); 0.01 ± 0.014 in assay [2] (20000 nM); -0.008 ± 0.025 with Octafluoroadipamide (6700 nM). The “level (log10)” value with Octafluoroadipamide (20000 nM) is 0.018 ± 0.013; in the assay with Octafluoroadipamide (60000 nM), 0.016 ± 0.025; in assay [3] (6700 nM), -0.0145 ± 0.016; in assay [3] (20000 nM), -0.011 ± 0.013; in assay [3] (60000 nM), 0.008 ± 0.021; in assay [4] (6700 nM), 0.0065 ± 0.026. For the same test system, the results for the “level (log10)” value in assay [4] (20000 nM) and in assay [4] (60000 nM) were 0.0035 ± 0.0035 and -0.01 ± 0.0085, respectively.

As for BF4T:tPA, the “level (log10)” value in assay [1] (6700 nM) is -0.008 ± 0.027; in assay [1] (20000 nM), -0.036 ± 0.028; in assay [1] (60000 nM) it was -0.0355 ± 0.036; in assay [2] (6700 nM), -0.053 ± 0.025; in assay [2] (20000 nM), -0.046 ± 0.0028; with Octafluoroadipamide (6700 nM), -0.0475 ± 0.035. The “level (log10)” value in the assay with Octafluoroadipamide (20000 nM) is -0.047 ± 0.045; with Octafluoroadipamide (60000 nM) it was -0.023 ± 0.081; in assay [3] (6700 nM) it was -0.003 ± 0.027; in assay [3] (20000 nM), -0.0155 ± 0.016; in assay [3] (60000 nM), -0.008 ± 0.0099; in assay [4] (6700 nM), 0.0155 ± 0.039. Besides, the figures for the “level (log10)” value in assay [4] (20000 nM) and in assay [4] (60000 nM) were -0.011 ± 0.0085 and 0.031 ± 0.034, respectively.

(Values after the supplement of paper PMC10331698.)
